Tests used:
Assay type in all cases: in vivo
[1] = system: wheat (Triticum aestivum); assay: Test A postemergence; details: Triticum aestivum, post-emergence, 240 h
In short: (§1)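 Seeded soil received test chemicals as a preemergence directed spray, and seedlings at one to two leaves, 2–10 cm tall, received them postemergence, in a non-phytotoxic, surfactant-containing solvent mixture. Pots were held in a greenhouse for approximately 10 d, then rated for injury from 0, no effect, to 100, complete control.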

[2] = system: Galium (catchweed bedstraw, Galium aparine); assay: Test A postemergence; details: Galium, post-emergence, 240 h
In short: as §1

[3] = system: ragweed (common ragweed, Ambrosia elatior); assay: Test A postemergence; details: Ambrosia artemisiifolia, post-emergence, 240 h
In short: as §1

[4] = system: blackgrass (Alopecurus myosuroides); assay: Test A postemergence; details: Alopecurus myosuroides, post-emergence, 240 h
In short: as §1

[5] = system: pigweed (Amaranthus retroflexus); assay: Test A postemergence; details: Amaranthus retroflexus, post-emergence, 240 h
In short: as §1

[6] = system: giant foxtail (Setaria faberii); assay: Test A postemergence; details: Setaria faberi, post-emergence, 240 h
In short: as §1

Kochia (Kochia scoparia) [7] = assay: Test A postemergence; details: Bassia scoparia, post-emergence, 240 h
In short: as §1

corn (Zea mays) = assay: Test A postemergence; details: Zea mays, post-emergence, 240 h
In short: as §1

[8] = system: barnyardgrass (Echinochloa crus-galli); assay: Test A postemergence; details: Echinochloa crus-galli, post-emergence, 240 h
In short: as §1

[9] = system: ryegrass, Italian (Italian ryegrass, Lolium multiflorum); assay: Test A postemergence; details: Lolium multiflorum, post-emergence, 240 h
In short: as §1

[10] = system: ragweed (common ragweed, Ambrosia elatior); assay: Test A preemergence; details: Ambrosia artemisiifolia, pre-emergence, 240 h, 0 to 100 scale where 0 is no effect and 100 is complete control, read-out: Ragweed plant response rating
In short: as §1

[11] = system: pigweed (Amaranthus retroflexus); assay: Test A preemergence; details: Amaranthus retroflexus, pre-emergence, 240 h, 0 to 100 scale where 0 is no effect and 100 is complete control, read-out: Pigweed plant response rating
[12] = system: giant foxtail (Setaria faberii); assay: Test A preemergence; details: Setaria faberi, pre-emergence, 240 h, 0 to 100 scale where 0 is no effect and 100 is complete control, read-out: Foxtail, Giant plant response rating
In short: as §1

Kochia (Kochia scoparia) [13] = assay: Test A preemergence; details: Bassia scoparia, pre-emergence, 240 h, 0 to 100 scale where 0 is no effect and 100 is complete control, read-out: Kochia plant response rating
In short: as §1

[14] = system: barnyardgrass (Echinochloa crus-galli); assay: Test A preemergence; details: Echinochloa crus-galli, pre-emergence, 240 h, 0 to 100 scale where 0 is no effect and 100 is complete control, read-out: Barnyardgrass plant response rating
In short: as §1

[15] = system: ryegrass, Italian (Italian ryegrass, Lolium multiflorum); assay: Test A preemergence; details: Lolium multiflorum, pre-emergence, 240 h, 0 to 100 scale where 0 is no effect and 100 is complete control, read-out: Ryegrass, Italian plant response rating
In short: as §1

rice (Oryra sativa) = assay: Test B flooded paddy test; details: Oryza sativa, 250 g ai/ha, Flood; 0 to 100 scale where 0 is no effect and 100 is complete control; read-out: Rice plant response rating
In short: (§2)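 Plants at 2-leaf stage flooded to 3 cm above soil, with compounds applied directly to paddy water and that depth maintained. Plants kept in greenhouse 13–15 d. Visual rating versus controls on a 0 (no effect) to 100 (complete control) scale.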

[16] = system: sedge, umbrella (small-flower umbrella sedge, Cyperus difformis); assay: Test B flooded paddy test; details: Cyperus difformis, 250 g ai/ha, Flood; 0 to 100 scale where 0 is no effect and 100 is complete control; read-out: Sedge, Umbrella plant response rating
In short: as §2

[17] = system: barnyardgrass (Echinochloa crus-galli); assay: Test B flooded paddy test; details: Echinochloa crus-galli, 250 g ai/ha, Flood; 0 to 100 scale where 0 is no effect and 100 is complete control; read-out: Barnyardgrass plant response rating
In short: as §2

[18] = system: ducksalad (Heteranthera limosa); assay: Test B flooded paddy test; details: Heteranthera limosa, 250 g ai/ha, Flood; 0 to 100 scale where 0 is no effect and 100 is complete control; read-out: Ducksalad plant response rating
In short: as §2

[19] = 125 g ai/ha, preemergence, approx. 10 d

`CN1C[C@H](c2ccc(F)c(Oc3ccccc3)c2)[C@@H](C(=O)Nc2ccccc2F)C1=O` [Compound 1141] was tested, and the plant injury at 125 g/ha ([1]; 125 g ai/ha, postemergence, visual injury vs untreated controls after approx. 10 d, 0 = no effect, 100 = complete control, read-out: Wheat plant response rating (0 to 100 scale)) was 20%, the plant injury at 31 g/ha ([1]; Postemergence, 31 g ai/ha, visual injury after approx. 10 d, 0 to 100 scale, 0 no effect, 100 complete control, read-out: Plant response rating, Wheat) was 0% and the pest or weed control at 125 g/ha ([2]; 125 g ai/ha, postemergence, visual injury on 0 to 100 scale (0 no effect, 100 complete control), approx. 10 d, read-out: Galium plant response rating) was 90%. For the same compound, the pest or weed control at 31 g/ha ([2]; Postemergence, 31 g ai/ha, visual injury after approx. 10 d, 0 to 100 scale, 0 no effect, 100 complete control, read-out: Plant response rating, Galium) was 60%, the pest or weed control at 125 g/ha ([3]; 125 g ai/ha, postemergence, visual injury vs untreated controls after approx. 10 d, 0 = no effect, 100 = complete control, read-out: Ragweed plant response rating (0 to 100 scale)) was 30% and the pest or weed control at 31 g/ha ([3]; Postemergence, 31 g ai/ha, visual injury after approx. 10 d, 0 to 100 scale, 0 no effect, 100 complete control, read-out: Plant response rating, Ragweed) was 0%. For the same compound, the pest or weed control at 125 g/ha ([4]; 125 g ai/ha, postemergence, visual injury on 0 to 100 scale (0 no effect, 100 complete control), approx. 10 d, read-out: Blackgrass plant response rating) was 30%, the pest or weed control at 31 g/ha ([4]; Postemergence, 31 g ai/ha, visual injury after approx. 10 d, 0 to 100 scale, 0 no effect, 100 complete control, read-out: Plant response rating, Blackgrass) was 0% and the pest or weed control at 125 g/ha ([5]; 125 g ai/ha, postemergence, visual injury vs untreated controls after approx. 10 d, 0 = no effect, 100 = complete control, read-out: Pigweed plant response rating (0 to 100 scale)) was 50%. For the same compound, the pest or weed control at 31 g/ha ([5]; Postemergence, 31 g ai/ha, visual injury after approx. 10 d, 0 to 100 scale, 0 no effect, 100 complete control, read-out: Plant response rating, Pigweed) was 30%, the pest or weed control at 125 g/ha ([6]; 125 g ai/ha, postemergence, visual injury on 0 to 100 scale (0 no effect, 100 complete control), approx. 10 d, read-out: Foxtail, Giant plant response rating) was 90% and the pest or weed control at 31 g/ha ([6]; Postemergence, 31 g ai/ha, visual injury after approx. 10 d, 0 to 100 scale, 0 no effect, 100 complete control, read-out: Plant response rating, Foxtail, Giant) was 60%. For the same compound, the pest or weed control at 125 g/ha (Kochia (Kochia scoparia) [7]; 125 g ai/ha, postemergence, visual injury on 0 to 100 scale (0 no effect, 100 complete control), approx. 10 d, read-out: Kochia plant response rating) was 30%, the pest or weed control at 31 g/ha (Kochia (Kochia scoparia) [7]; Postemergence, 31 g ai/ha, visual injury after approx. 10 d, 0 to 100 scale, 0 no effect, 100 complete control, read-out: Plant response rating, Kochia) was 0% and the plant injury at 125 g/ha (corn (Zea mays); 125 g ai/ha, postemergence, visual injury on 0 to 100 scale (0 no effect, 100 complete control), approx. 10 d, read-out: Corn plant response rating) was 20%. For the same compound, the Corn plant response rating (crop injury, 0 = no effect, 100 = complete kill) at 31 g/ha (corn (Zea mays); Postemergence, 31 g ai/ha, visual injury after approx. 10 d, 0 to 100 scale, 0 no effect, 100 complete control) was 0%, the pest or weed control at 125 g/ha ([8]; 125 g ai/ha, postemergence, visual injury on 0 to 100 scale (0 no effect, 100 complete control), approx. 10 d, read-out: Barnyardgrass plant response rating) was 90% and the pest or weed control at 31 g/ha ([8]; Postemergence, 31 g ai/ha, visual injury after approx. 10 d, 0 to 100 scale, 0 no effect, 100 complete control, read-out: Plant response rating, Barnyardgrass) was 60%. The pest or weed control at 125 g/ha ([9]; 125 g ai/ha, postemergence, visual injury vs untreated controls after approx. 10 d, 0 = no effect, 100 = complete control, read-out: Ryegrass, Italian plant response rating (0 to 100 scale)) was 50%, the pest or weed control at 31 g/ha ([9]; Postemergence, 31 g ai/ha, visual injury after approx. 10 d, 0 to 100 scale, 0 no effect, 100 complete control, read-out: Plant response rating, Ryegrass, Italian) was 20% and the pest or weed control at 31 g/ha ([10]; 31 g ai/ha, Preemergence) was 0%. It also gave a pest or weed control at 125 g/ha [10, 19] of 0%, a pest or weed control at 31 g/ha ([11]; 31 g ai/ha, Preemergence) of 30% and a pest or weed control at 125 g/ha [11, 19] of 60%. For the same compound, the pest or weed control at 31 g/ha ([12]; 31 g ai/ha, Preemergence) was 80%, the pest or weed control at 125 g/ha [12, 19] was 90% and the pest or weed control at 31 g/ha (Kochia (Kochia scoparia) [13]; 31 g ai/ha, Preemergence) was 0%. It also gave a pest or weed control at 125 g/ha (Kochia (Kochia scoparia) [13]; [19]) of 0%, a pest or weed control at 31 g/ha ([14]; 31 g ai/ha, Preemergence) of 30% and a pest or weed control at 125 g/ha [14, 19] of 80%. For the same compound, the pest or weed control at 31 g/ha ([15]; 31 g ai/ha, Preemergence) was 0%, the pest or weed control at 125 g/ha [15, 19] was 40% and the pest or weed control at 250 g/ha (rice (Oryra sativa)) was 0%. For the same compound, the pest or weed control at 250 g/ha [16] was 0%, the pest or weed control at 250 g/ha [17] was 50% and the pest or weed control at 250 g/ha [18] was 90%.

From patent publication US12077503B2, “Substituted cyclic amides and their use as herbicides” (FMC CORPORATION, priority 2015, dated 2024)
